# Measurements reported in article PMC10643130, “Molecular basis for selective uptake and elimination of organic anions in the kidney by OAT1” (Nature Structural & Molecular Biology, 2023).
# “And” between values parts separate entries of the source, which are not always exact repeats. Equal entries are not always repeated. Where two headings read alike, the source gives them in different places.
# T1: wild-type human OAT1 (HsOAT1) (Homo sapiens, UniProt Q4U2R8)
# T1 sequence (Q4U2R8 1-563): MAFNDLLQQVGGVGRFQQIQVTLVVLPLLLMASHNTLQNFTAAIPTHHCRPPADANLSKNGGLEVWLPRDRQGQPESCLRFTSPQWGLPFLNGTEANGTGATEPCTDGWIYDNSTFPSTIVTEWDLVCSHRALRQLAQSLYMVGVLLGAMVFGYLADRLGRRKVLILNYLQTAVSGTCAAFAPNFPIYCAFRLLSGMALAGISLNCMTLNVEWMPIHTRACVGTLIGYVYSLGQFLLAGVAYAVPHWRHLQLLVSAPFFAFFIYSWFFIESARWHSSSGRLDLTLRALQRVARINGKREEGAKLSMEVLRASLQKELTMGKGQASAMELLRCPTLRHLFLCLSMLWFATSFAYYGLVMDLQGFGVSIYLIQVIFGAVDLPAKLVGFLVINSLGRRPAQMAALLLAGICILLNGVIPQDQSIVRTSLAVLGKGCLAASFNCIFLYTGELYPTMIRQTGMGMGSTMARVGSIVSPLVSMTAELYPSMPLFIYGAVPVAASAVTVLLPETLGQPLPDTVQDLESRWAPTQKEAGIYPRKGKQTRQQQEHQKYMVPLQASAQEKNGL
# T2: human OAT1 Gly227Ala (G227A) (Homo sapiens, UniProt Q4U2R8, G227A)
# T2 sequence (Q4U2R8 1-563 G227A): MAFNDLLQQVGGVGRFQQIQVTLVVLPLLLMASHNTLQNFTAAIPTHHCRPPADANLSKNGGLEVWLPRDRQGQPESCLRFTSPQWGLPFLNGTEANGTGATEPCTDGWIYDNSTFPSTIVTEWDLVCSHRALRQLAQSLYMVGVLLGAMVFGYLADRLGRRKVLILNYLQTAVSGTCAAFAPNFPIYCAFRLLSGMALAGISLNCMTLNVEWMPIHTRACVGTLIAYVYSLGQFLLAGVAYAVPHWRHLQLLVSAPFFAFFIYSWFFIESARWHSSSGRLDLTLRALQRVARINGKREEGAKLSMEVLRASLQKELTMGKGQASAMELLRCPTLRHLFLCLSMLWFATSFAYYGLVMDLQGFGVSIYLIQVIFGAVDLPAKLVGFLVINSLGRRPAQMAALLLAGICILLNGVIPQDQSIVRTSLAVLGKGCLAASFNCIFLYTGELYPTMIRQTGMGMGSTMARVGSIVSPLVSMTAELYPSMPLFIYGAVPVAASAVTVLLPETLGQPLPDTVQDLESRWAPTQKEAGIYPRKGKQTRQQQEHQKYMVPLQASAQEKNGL
# T3: human OAT1 Tyr230Phe (Y230F) (Homo sapiens, UniProt Q4U2R8, Y230F)
# T3 sequence (Q4U2R8 1-563 Y230F): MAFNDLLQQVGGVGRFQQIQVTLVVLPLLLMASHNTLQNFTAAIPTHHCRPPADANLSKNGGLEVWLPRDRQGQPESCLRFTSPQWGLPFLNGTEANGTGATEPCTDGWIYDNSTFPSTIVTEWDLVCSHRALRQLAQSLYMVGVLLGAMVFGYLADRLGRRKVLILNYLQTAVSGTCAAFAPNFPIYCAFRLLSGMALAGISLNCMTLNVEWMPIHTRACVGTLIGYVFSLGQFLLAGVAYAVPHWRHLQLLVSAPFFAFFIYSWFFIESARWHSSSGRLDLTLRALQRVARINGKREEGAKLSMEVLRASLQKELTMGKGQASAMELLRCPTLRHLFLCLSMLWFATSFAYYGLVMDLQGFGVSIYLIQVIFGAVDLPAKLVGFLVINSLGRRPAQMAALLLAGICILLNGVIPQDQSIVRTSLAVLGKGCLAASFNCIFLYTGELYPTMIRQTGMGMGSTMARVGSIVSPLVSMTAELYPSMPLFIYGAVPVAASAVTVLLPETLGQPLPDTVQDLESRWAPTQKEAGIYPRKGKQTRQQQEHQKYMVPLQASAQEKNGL
# T4: OAT1 Ser350Ala (S350A) mutant, human (Homo sapiens, UniProt Q4U2R8, S350A)
# T4 sequence (Q4U2R8 1-563 S350A): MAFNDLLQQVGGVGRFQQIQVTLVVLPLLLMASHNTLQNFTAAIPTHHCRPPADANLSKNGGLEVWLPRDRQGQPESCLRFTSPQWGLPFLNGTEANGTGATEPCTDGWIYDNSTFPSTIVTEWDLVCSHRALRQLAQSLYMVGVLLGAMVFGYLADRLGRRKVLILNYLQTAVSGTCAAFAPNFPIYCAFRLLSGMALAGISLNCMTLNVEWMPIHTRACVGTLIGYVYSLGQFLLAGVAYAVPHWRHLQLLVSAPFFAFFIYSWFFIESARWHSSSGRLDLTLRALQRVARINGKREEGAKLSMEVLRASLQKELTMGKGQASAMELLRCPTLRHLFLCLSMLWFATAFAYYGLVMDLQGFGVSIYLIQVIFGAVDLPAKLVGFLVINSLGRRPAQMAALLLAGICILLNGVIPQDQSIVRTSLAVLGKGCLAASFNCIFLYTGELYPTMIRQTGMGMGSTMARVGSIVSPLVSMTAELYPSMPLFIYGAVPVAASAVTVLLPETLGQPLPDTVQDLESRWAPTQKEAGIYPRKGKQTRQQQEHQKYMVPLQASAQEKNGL
# T5: RnOat1 (Rattus norvegicus, UniProt O35956)
# T5 construct: made in house; host or cells: Sf9 insect cells (baculovirus)
# T5 sequence (O35956 1-551): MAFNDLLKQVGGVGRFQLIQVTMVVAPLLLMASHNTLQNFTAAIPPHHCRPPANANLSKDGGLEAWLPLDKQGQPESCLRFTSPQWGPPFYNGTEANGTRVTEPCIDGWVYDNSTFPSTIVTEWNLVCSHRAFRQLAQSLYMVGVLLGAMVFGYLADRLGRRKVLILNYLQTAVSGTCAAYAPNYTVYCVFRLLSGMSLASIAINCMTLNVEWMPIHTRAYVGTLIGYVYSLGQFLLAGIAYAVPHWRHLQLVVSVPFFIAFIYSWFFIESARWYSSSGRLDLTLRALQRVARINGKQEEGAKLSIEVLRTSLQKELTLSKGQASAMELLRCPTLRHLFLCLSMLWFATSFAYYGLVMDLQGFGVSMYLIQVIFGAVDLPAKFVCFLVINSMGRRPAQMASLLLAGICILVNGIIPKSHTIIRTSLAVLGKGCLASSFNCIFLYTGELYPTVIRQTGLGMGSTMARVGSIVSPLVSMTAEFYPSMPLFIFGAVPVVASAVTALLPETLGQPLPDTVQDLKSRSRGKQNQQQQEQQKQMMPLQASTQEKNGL
# Columns and labels:
# OAT3 = settings: cited from earlier work
# URAT1 = settings: cited from earlier work
# OAT2 = settings: cited from earlier work
# [1] = target: T1, wild-type human OAT1 (HsOAT1); experiment: Cell-based 6-CF transport assay, wild-type HsOAT1 in HeLa cells
# Experimental: (§1) To assay HsOAT1 transporter activity the model substrate 6-carboxyfluorescein (6-CF)[46],[47]
# (§2) For transport assays, 1 × 10^5 cells per well were seeded into 24-well plates and 24 h later transfected using FUGENE HD (Promega E2311) Transfection Reagent (0.4 μg DNA per 1 μl of FUGENE per well) with HsOAT1 constructs containing a C-terminal FLAG tag in the vector pCDNA3.1 for 36 h. Expression of each mutant of HsOAT1 was assessed through western blotting on membrane fractions using an anti-FLAG antibody 1:3,000 dilution (Merck F1804), using a loading control of anti-β-actin 1:5,000 dilution (Merck A2228) (Extended Data Fig. 4). […] Background fluorescence was subtracted from cells transfected with the empty plasmid, and the data were normalized to 100%. To assess the activity of HsOAT1 in the presence and absence of chloride, the buffer was 120 mM NaCl, 28 mM glucose and 25 mM HEPES, pH 7.2 or for chloride-free conditions, and 120 mM sodium gluconate was used. […] To study the effect of ligands or inhibitors, the compound of interest was added to the assay buffer at the desired concentration. […] Each concentration was repeated three times to calculate standard errors, and the whole experiment was repeated three times to calculate the mean IC50 and standard error.
# [2] = target: T2, human OAT1 Gly227Ala (G227A); experiment: cell-based
# [3] = target: T3, human OAT1 Tyr230Phe (Y230F); experiment: Cell-based 6-CF transport assay, HsOAT1 Tyr230Phe mutant; settings: 8 min
# [4] = target: T4, OAT1 Ser350Ala (S350A) mutant, human; experiment: Cell-based 6-CF transport assay, HsOAT1 Ser350Ala mutant; settings: pH 7.2, probe 6-carboxyfluorescein (6-CF), 10 μM 6-CF, HeLa cells, mean ± s.d.
# [5] = target: T1, wild-type human OAT1 (HsOAT1); experiment: cell-based
# Experimental: as §1, §2
# RnOat1 = target: T5, RnOat1; experiment: Sybody binding by biolayer interferometry; parameters: unit not given here
# Experimental: Sybody selection was performed against C-terminally Avi-Flag-tagged and biotinylated RnOat1 using methods described previously in ref. [48]. A high-affinity sybody with a slow off rate, as measured using biolayer interferometry (Octet Red 384), was identified from the concave library. The sybody was cloned and expressed as a C-terminally MycHis tagged construct from the pSB-init vector (Addgene no. 110100), (pSB_Syb25 Addgene no. 197992).
# [6] = target: T6, Biotinylated RnOat1 with a C-terminal Avi-tag followed by a FLAG tag (Rattus norvegicus, UniProt O35956, biotin (on the Avi-tag, by GST-BirA)); experiment: BLI; Octet Red 384; who was immobilised and the buffer are not told; n = 4 independent experiments; settings: both partners purified
# T6 construct: Organic anion transporter 1 (Oat1, Slc22a6) of Rattus norvegicus; Used for the sybody selection; The host is likely Sf9 as for the structural construct (surmise); also called C-terminally Avi-Flag-tagged and biotinylated RnOat1; not shown: Avi-tag, C-terminal, kept
# [7] = 8 min, read-out: 6-CF uptake, Mean
molecule,measurement,setting,value
CCCN(CCC)S(=O)(=O)c1ccc(C(=O)O)cc1 [probenecid],inhibition of OAT3,OAT3,inhibitor
same,inhibition of URAT1,URAT1,inhibitor
same,inhibition of OAT2,OAT2,poor inhibitor
O=C(O)CCC(=O)O [succinate],"6-CF transport in presence of dicarboxylate, single experiments","[1]; dicarboxylate 0.5 mM, 8 minutes, n = 8",62.6553% and 71.4816% and 66.0745% and 69.225% and 69.843% and 74.8162% and 55.8733% and 76.8934%
C[C@H](Cn1cnc2c(N)ncnc21)OCP(=O)(O)O [tenofovir],remaining activity at 1 µM,[2]; [7],99.8%
same,remaining activity at 2 µM,[2]; [7],82.7%
same,remaining activity at 2.30103 µM,[2]; [7],69.5%
same,remaining activity at 2.60206 µM,[2]; [7],40.3%
same,remaining activity at 3 µM,[2]; [7],31.2%
same,remaining activity at 3.17609 µM,[2]; [7],15.6%
same,effect of Gly227Ala mutant on tenofovir recognition,"[2]; versus wild type, Fig. 2f",no discernible effect
same,remaining activity at 1 µM,"[3]; read-out: 6-CF uptake, Mean",99%
same,remaining activity at 2 µM,"[3]; read-out: 6-CF uptake, Mean",95.2%
same,remaining activity at 2.30103 µM,"[3]; read-out: 6-CF uptake, Mean",87%
same,remaining activity at 2.60206 µM,"[3]; read-out: 6-CF uptake, Mean",68.5%
same,remaining activity at 3 µM,"[3]; read-out: 6-CF uptake, Mean",52.3%
same,remaining activity at 3.17609 µM,"[3]; read-out: 6-CF uptake, Mean",35%
same,IC50,"[3]; Tyr230Phe, 10 μM 6-CF, HeLa cells, mean ± s.d.",450 ± 26 µM
same,IC50 at 8 min,[4],241 ± 11 µM
same,IC50,[5],120 ± 19 µM
same,"6-CF uptake, MEAN",[1],99%
same,"6-CF uptake, MEAN","[1]; WT Tenofovir, uM column 2",79%
same,"6-CF uptake, MEAN","[1]; WT Tenofovir, uM column 2.30103",65%
same,"6-CF uptake, MEAN","[1]; WT Tenofovir, uM column 2.60206",35%
same,"6-CF uptake, MEAN","[1]; WT Tenofovir, uM column 3",24%
same,"6-CF uptake, MEAN","[1]; WT Tenofovir, uM column 3.17609",12%
"Sybody (synthetic nanobody) against RnOat1, Syb25 (VHH, selected from the concave sybody library; source: expressed from the pSB-init vector) VHH: QVQLVESGGGLVQAGGSLRLSCAASGFPVKTEWMEWYRQAPGKEREWVAAIWSYGSGTRYADSVKGRFTISRDNAKNTVYLQMNSLKPEDTAVYYCLVRVGSWYHGQGTQVTVSA",binding response (ED Fig 3e source data),RnOat1; Conc. 7.81 nM,0.004
same,binding response (ED Fig 3e source data),RnOat1; Conc. 15.625 nM,0.0165
same,binding response (ED Fig 3e source data),RnOat1; Conc. 31.25 nM,0.04633
same,binding response (ED Fig 3e source data),RnOat1; Conc. 62.5 nM,0.1353
same,binding response (ED Fig 3e source data),RnOat1; Conc. 250 nM,0.201
same,binding response (ED Fig 3e source data),RnOat1; Conc. 500 nM,0.2162
same,binding response (ED Fig 3e source data),RnOat1; Conc. 1000 nM,0.2225
same,binding response (ED Fig 3e source data),RnOat1; Conc. 2000 nM,0.23
same,Kd,[6],0.075 µM
